# Experimental data as given in PubChem BioAssay AID256 (DTP/NCI, 2004).
# Several values for one entry are separate records, joined by “and”; a condition that tells them apart may be missing. Equal entries are not always repeated. Inconclusive results and toxic doses are left out.
# Tested on: CD2F1 mice, L1210 leukemia ip, survival T/C
# Assay: NCI In Vivo Anticancer Drug Screen. Data for tumor model L1210 Leukemia (intraperitoneal) in CD2F1 (CDF1) mice
# Conditions: higher = longer survival
# How it was run: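 Implant tumor; dose compound or vehicle; measure endpoint in both groups; report treated divided by control.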
# [1] = endpoint: mean survival time, dose: 100.0 mg/kg/injection, schedule: Q04DX003 (ip), vehicle: saline
# [2] = endpoint: mean survival time, dose: 12.5 mg/kg/injection, schedule: Q04DX003 (ip), vehicle: saline with Tween-80
# [3] = endpoint: mean survival time, dose: 100.0 mg/kg/injection, schedule: Q04DX002 (ip), vehicle: saline with Tween-80
# [4] = endpoint: mean survival time, dose: 12.5 mg/kg/injection, schedule: Q01DX009 (ip), vehicle: saline with Tween-80
# [5] = endpoint: mean survival time, dose: 25.0 mg/kg/injection, schedule: Q01DX009 (ip), vehicle: saline with Tween-80
smiles,measurement,setting,value
COC(Cn1cnc2c(N)ncnc21)OC,T/C,[1],110 % of control
same,T/C,"endpoint: mean survival time, dose: 200.0 mg/kg/injection, schedule: Q04DX003 (ip), vehicle: saline",98 % of control
same,T/C,"endpoint: mean survival time, dose: 400.0 mg/kg/injection, schedule: Q04DX003 (ip), vehicle: saline",112 % of control
N#CC[CH2][Sn]([I])([c]1ccccc1)[c]1ccccc1,T/C,"endpoint: mean survival time, dose: 6.25 mg/kg/injection, schedule: Q04DX003 (ip), vehicle: saline with Tween-80",97 % of control
same,T/C,[2],97 % of control
Cn1cnc([N+](=O)[O-])c1[Se]c1nc(N)nc2c1ncn2C1OC(CO)C(O)C1O (stereo not drawn),T/C,"endpoint: mean survival time, dose: 2.0 mg/kg/injection, schedule: Q01DX009 (ip), vehicle: distilled water + Tween-80",114 % of control
same,T/C,"endpoint: mean survival time, dose: 4.0 mg/kg/injection, schedule: Q01DX009 (ip), vehicle: distilled water + Tween-80",112 % of control
same,T/C,"endpoint: mean survival time, dose: 8.0 mg/kg/injection, schedule: Q01DX009 (ip), vehicle: distilled water + Tween-80",108 % of control and 110 % of control
same,T/C,"endpoint: mean survival time, dose: 12.5 mg/kg/injection, schedule: Q01DX005 (ip), vehicle: saline",166 % of control
same,T/C,"endpoint: mean survival time, dose: 25.0 mg/kg/injection, schedule: Q01DX005 (ip), vehicle: saline",175 % of control
same,T/C,"endpoint: mean survival time, dose: 50.0 mg/kg/injection, schedule: Q01DX005 (ip), vehicle: saline",176 % of control
same,T/C,"endpoint: mean survival time, dose: 64.0 mg/kg/injection, schedule: Q01DX009 (ip), vehicle: distilled water + Tween-80",98 % of control
CCC(C)(OC(C)=O)C(=O)OC1C(=O)OC2CC3C(C)=CC(O)C(O)C3(C)C3C4(O)OCC23C1C(C)C4O (stereo not drawn),T/C,"endpoint: mean survival time, dose: 0.25 mg/kg/injection, schedule: Q01DX009 (ip), vehicle: saline + alcohol",98 % of control
same,T/C,"endpoint: mean survival time, dose: 0.5 mg/kg/injection, schedule: Q01DX009 (ip), vehicle: saline + alcohol",102 % of control
same,T/C,"endpoint: mean survival time, dose: 1.0 mg/kg/injection, schedule: Q01DX009 (ip), vehicle: saline + alcohol",106 % of control
same,T/C,"endpoint: mean survival time, dose: 2.0 mg/kg/injection, schedule: Q01DX009 (ip), vehicle: saline + alcohol",98 % of control
same,T/C,"endpoint: mean survival time, dose: 4.0 mg/kg/injection, schedule: Q01DX009 (ip), vehicle: saline + alcohol",96 % of control
CCN(CC)C(=O)c1ccc[n+](CC(=O)Nc2ccccc2)c1,T/C,"endpoint: mean survival time, dose: 25.0 mg/kg/injection, schedule: Q01DX009 (ip), vehicle: saline",108 % of control
same,T/C,"endpoint: mean survival time, dose: 50.0 mg/kg/injection, schedule: Q01DX009 (ip), vehicle: saline",105 % of control
same,T/C,"endpoint: mean survival time, dose: 100.0 mg/kg/injection, schedule: Q01DX009 (ip), vehicle: saline",97 % of control
same,T/C,[1],104 % of control
CC(=O)NC1=CC(OC(C)=O)C(COC(C)=O)OC1n1cnc2c1c(=O)n(C)c(=O)n2C (stereo not drawn),T/C,"endpoint: mean survival time, dose: 12.5 mg/kg/injection, schedule: Q01DX005 (ip), vehicle: distilled water + Tween-80",93 % of control
same,T/C,"endpoint: mean survival time, dose: 25.0 mg/kg/injection, schedule: Q01DX005 (ip), vehicle: distilled water + Tween-80",88 % of control
same,T/C,"endpoint: mean survival time, dose: 50.0 mg/kg/injection, schedule: Q01DX005 (ip), vehicle: distilled water + Tween-80",88 % of control
same,T/C,"endpoint: mean survival time, dose: 200.0 mg/kg/injection, schedule: Q01DX005 (ip), vehicle: distilled water + Tween-80",88 % of control
NC(=O)c1nc(Br)n(C2OC(CO)C(O)C2O)c1N (stereo not drawn),T/C,"endpoint: median survival time, dose: 44.0 mg/kg/injection, schedule: Q01DX005 (ip), vehicle: saline",104 % of control
same,T/C,"endpoint: median survival time, dose: 88.0 mg/kg/injection, schedule: Q01DX005 (ip), vehicle: saline",101 % of control
same,T/C,"endpoint: median survival time, dose: 175.9 mg/kg/injection, schedule: Q01DX005 (ip), vehicle: saline",102 % of control
O=C1OC(=O)C2C(c3ccccc3)=C3C(=C(c4ccccc4)C12)c1cccc2cccc3c12 (stereo not drawn),T/C,[3],94 % of control
same,T/C,"endpoint: mean survival time, dose: 200.0 mg/kg/injection, schedule: Q04DX002 (ip), vehicle: saline with Tween-80",97 % of control
same,T/C,"endpoint: mean survival time, dose: 400.0 mg/kg/injection, schedule: Q04DX002 (ip), vehicle: saline with Tween-80",94 % of control
Nc1nc(N)c2nc(-c3ccccc3)c(N)nc2n1,T/C,[4],97 % of control
same,T/C,[2],102 % of control
same,T/C,[5],98 % of control
same,T/C,"endpoint: mean survival time, dose: 25.0 mg/kg/injection, schedule: Q04DX003 (ip), vehicle: saline with Tween-80",95 % of control
same,T/C,"endpoint: mean survival time, dose: 50.0 mg/kg/injection, schedule: Q01DX009 (ip), vehicle: saline with Tween-80",94 % of control
same,T/C,"endpoint: mean survival time, dose: 50.0 mg/kg/injection, schedule: Q04DX003 (ip), vehicle: saline with Tween-80",98 % of control
CCOc1ccc(OCC)c(NC(=O)Nc2cccc(Cl)c2)c1,T/C,"endpoint: mean survival time, dose: 25.0 mg/kg/injection, schedule: Q04DX002 (ip), vehicle: saline with Tween-80",92 % of control
same,T/C,"endpoint: mean survival time, dose: 50.0 mg/kg/injection, schedule: Q04DX002 (ip), vehicle: saline with Tween-80",92 % of control
same,T/C,[3],88 % of control
c1ccc2c3c([nH]c2c1)CN1CCNCC1C3 (stereo not drawn),T/C,"endpoint: mean survival time, dose: 6.25 mg/kg/injection, schedule: Q01DX009 (ip), vehicle: saline with Tween-80",98 % of control
same,T/C,[4],100 % of control
same,T/C,[5],100 % of control
